Experimental data published in US12139729B2, “Neurodegenerative disorders” (priority 2013, dated 2024).
Residues, ends and D or L forms follow the SMILES beside them. No end group written: not given here.

Columns and labels:
PC12 cells [1] = assay: Sulforhodamine B (SRB) cell viability assay; type: cell-based
Description: Wild-type PC12 cell were provided by Sigma-Aldrich (St. Louis, MO). The culture was routinely plated in 100 mm dishes (Corning) coated with collagen (2 μg/cm^2) and maintained in growth medium with Minimum Essential Medium Eagle (MEM) supplemented with heat-inactivated 10% horse serum (HS) and 5% foetal bovine serum (FBS), 10 mM HEPES, 2 mM L-Glutamine and 1:400 Penicillin/streptomycin solution. Cells were maintained at 37° C. in a humidified atmosphere 5% CO2 and the medium was replaced every 2 days. For splitting, cells were dislodged from the dish using a pipette with medium, with a portion of these replated onto new cultured dishes. Cells were used between passages 12 and 25.
The cell viability assay used was the sulforhodamine B (SRB) colorimetric assay for toxicity screening. The day before of the experiment cells were seeded onto collagen-coated 96-well plates in a concentration of 40,000 cells/well. Cell concentration was determined by the Fuchs-Rosenthal chamber. […] After treatment, medium was replaced and cells were fixed by adding 100 μl of 10% Trichloroacetic Acid (TCA) for 1 h at 4° C. Thereafter, cells were washed with H2O and stained with 100 μl of a 0.057% SRB solution in 1% Acetic acid (HAc) for 30 minutes at room temperature. After staining cells were washed with 1% HAc for removing the excess of SRB and then incubated with 200 μl of 10 mM Tris base (pH 10.5) and shake it for 5 minutes to solubilise the protein-bound dye. Measurement of the absorbance took place in a VMax Kinetic Microplate Reader (Molecular Devices) at 490 nm.

[2] = target: T1, acetylcholinesterase (AChE) (Rattus norvegicus, UniProt P37136); assay: Acetylcholinesterase enzymatic activity assay (Ellman reagent); type: biochemical
T1 construct: endogenous in cells; host or cells: PC12 cells (released enzyme in the supernatant)
T1 sequence (P37136 32-614): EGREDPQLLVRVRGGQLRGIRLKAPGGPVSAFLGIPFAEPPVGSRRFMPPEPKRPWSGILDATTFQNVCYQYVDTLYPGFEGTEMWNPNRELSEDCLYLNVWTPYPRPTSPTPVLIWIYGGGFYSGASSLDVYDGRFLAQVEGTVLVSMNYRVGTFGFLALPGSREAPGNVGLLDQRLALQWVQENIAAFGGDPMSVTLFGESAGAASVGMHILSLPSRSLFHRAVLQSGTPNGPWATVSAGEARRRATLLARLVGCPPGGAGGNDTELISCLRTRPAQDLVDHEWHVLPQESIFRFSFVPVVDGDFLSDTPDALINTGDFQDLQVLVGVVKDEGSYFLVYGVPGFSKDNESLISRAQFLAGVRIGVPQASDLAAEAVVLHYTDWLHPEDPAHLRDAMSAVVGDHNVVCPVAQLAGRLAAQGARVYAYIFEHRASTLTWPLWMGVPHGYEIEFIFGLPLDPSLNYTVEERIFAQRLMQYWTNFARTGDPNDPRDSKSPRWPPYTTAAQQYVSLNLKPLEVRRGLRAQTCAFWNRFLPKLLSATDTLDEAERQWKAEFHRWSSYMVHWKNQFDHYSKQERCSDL
Description: AChE activity was measured using the Ellman reagent that measures the presence of thiol groups as a result of AChE activity. Cells were plated the day before the experiment as for the cell viability assay. Cells were treated with different concentrations of Cyclic T14 (0.1-100 μM) and T30, T14 and Aβ 10 μM alone or combined with Cyclic T14 (0.1 and 0.7 μM). […] The Ellman reagent was prepared as a mixture of the 3 solutions in a ratio 33(A):3(B):4(C). Absorbance measurements were taken at regular intervals (3, 10, 30 and 60 mins) across experiments at 405 nm.
The inventor next decided to confirm whether or not Cyclic T14 affects the enzymatic activity of acetylcholinesterase (AChE). AChE enzymatic activity was measured using the acetylcholinesterase activity assay.

rat brain slices = assay: Calcium fluorometry (Fluo-4) in brain slices; type: cell-based; conditions: two hours
Description: Increases in intracellular Ca^2+ were monitored by measuring changes in fluorescence in cells loaded with Fluo-4 (Life Technologies Corporation, UK). […] After the 2 hours, slices were incubated in the dark for 40 minutes at room temperature with 1.2 ml/well of loading medium that contained: Tyrode's salt solution (TSS; 137 mM NaCl, 2.7 mM KCl, 1.0 mM MgCl2, 2.5 mM CaCl2, 0.2 mM NaH2PO4, 12.0 NaHCO3, 5.5 glucose, pH 7.4), Fluo-4 (2 μM), Pluronic F127 (0.02%) and probenecid (2 mM). Probenecid is a blocker of the multidrug resistant protein, an ion transporter, and avoids the excretion of the fluorescent molecule from the cell. After incubation, slices were washed with TSS and 1200 μl/well of de-esterification medium, containing TSS and probenecid, were added. Slices were incubated in the dark for 20 minutes at 22° C. Fluorescence measurements (excitation 485 nm, emission 538 nm) were recorded in a Fluostar Optima (BMG, UK) plate reader.

α7 nicotinic receptor = target: T2, α7 nicotinic receptor (Rattus norvegicus, UniProt Q05941); assay: Acetylcholine-induced calcium influx (Fluo-8) in PC12 cells; type: cell-based
T2 construct: [3H]; host or cells: wild-type PC12 cells
T2 sequence (Q05941 23-502): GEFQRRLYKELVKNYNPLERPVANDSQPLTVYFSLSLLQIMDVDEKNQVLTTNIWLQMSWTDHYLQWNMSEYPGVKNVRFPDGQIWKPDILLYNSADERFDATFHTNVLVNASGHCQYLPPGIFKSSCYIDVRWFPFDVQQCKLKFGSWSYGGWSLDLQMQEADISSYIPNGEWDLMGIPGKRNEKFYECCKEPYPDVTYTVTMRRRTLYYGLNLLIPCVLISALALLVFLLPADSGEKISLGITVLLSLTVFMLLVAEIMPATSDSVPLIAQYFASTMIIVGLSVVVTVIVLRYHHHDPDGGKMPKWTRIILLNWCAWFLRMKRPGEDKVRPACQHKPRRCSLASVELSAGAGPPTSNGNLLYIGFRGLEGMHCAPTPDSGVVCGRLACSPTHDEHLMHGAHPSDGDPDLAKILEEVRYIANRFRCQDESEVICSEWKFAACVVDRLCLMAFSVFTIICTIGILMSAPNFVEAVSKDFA
Description: PC12 cells are plated in 200 μl of complete growth medium the day before the experiment in 96 well plates. On the day of the experiment, the Fluo-8 solution (Abcam) is prepared (as provider protocol). Subsequently, 100 μl of growth medium is removed and 100 μl of Fluo-8 solution is added. Treatments with T30 and NBP-14 are added and incubated for 30 minutes in the incubator and 30 minutes room temperature.
After 1 hour, the plate is placed in the fluorescence plate reader (Fluostar). Before reading the fluorescence, acetylcholine (ACh) 100 μM is prepared and placed in the Fluostar injector. For each well, the reading will be formed by a basal fluorescence followed by acetylcholine injection that will induce an increase of calcium via nicotinic receptors. The effects of T30 and NBP-14 are then evaluated.

PC12 cells [3] = assay: Cell Counting Kit-8 (CCK-8) cell viability assay; type: cell-based; conditions: T30 5 uM, FIG. 15
Description: A Cell Counting Kit-8 (CCK-8) was used as an improvement of the SRB technique used before. By utilizing the highly water-soluble tetrazolium salt WST-8, CCK-8 produces a water-soluble formazan dye upon reduction in the presence of an electron carrier. WST-8 is reduced by dehydrogenases in cells to give a yellow colored product (formazan), which is soluble in the tissue culture medium. The amount of the formazan dye generated by the activity of dehydrogenases in cells is directly proportional to the number of living cells. PC12 cells are plated in 200 μl of complete growth medium the day before the experiment in 96 well plates. Treatments with T30 and NBP-14 are added and incubated for 1 hour in the incubator.
Subsequently, 100 μl of growth medium is removed and 10 μl of CCK-8 (Cell Counting Kit-8) solution is added. The plate is incubated for 2 hours in the incubator and then placed in the absorbance plate reader. The absorbance must be measured at 450 nm.

With `CSCC[C@@H]1NC(=O)[C@H](Cc2ccc(O)cc2)NC(=O)[C@H](CO)NC(=O)[C@H](CO)NC(=O)[C@H](Cc2c[nH]c3ccccc23)NC(=O)[C@H](CCCNC(=N)N)NC(=O)[C@H](Cc2c[nH]cn2)NC(=O)[C@H](Cc2ccccc2)NC(=O)[C@H](CCC(=O)O)NC(=O)[C@H](C)NC(=O)[C@H](CCCCN)NC(=O)[C@H](Cc2c[nH]c3ccccc23)NC(=O)[C@H](Cc2c[nH]cn2)NC(=O)[C@H](C(C)C)NC1=O` [Cyclic T14] (cyclo(AEFHRWSSYMVHWK)) as the molecule, how does the “protection against non-specific cytotoxic effect of H2O2 (H2O2 alone vs combined)” value (PC12 cells [1]; H2O2 100 μM + Cyclic T14 100 nM, PC12) read?
Its value is “no significant difference”.

And the “threshold dose for full protection against β-amyloid” value (PC12 cells [1]; PC12, 1 hour)?
Its value is 1 nM.

And the “minimum effective concentration against β-Amyloid (10 μM) on cell viability” value (PC12 cells [1]; PC12, FIG. 8)?
Its value is 1 nM.

And the “blocks β-Amyloid at low doses (Table 3 feature)” value (PC12 cells [1]; ✓ = Dream Drug feature 'Blocks β-Amyloid at low doses 1 nM)')?
Its value is “✓”.

And the “effect on enzyme activity of acetylcholinesterase” value ([2]; 2 μM)?
The value was “did not affect”.

What about the “effect on AChE activity (Table 3 feature)” value ([2]; ✓ = Dream Drug feature 'Does not affect AChE activity') of the same molecule?
The value was “✓”.

What about the “intracellular calcium level raised by β-Amyloid, combined with Cyclic T14” value (rat brain slices; Cyclic T14 1 μM + β-Amyloid 10 μM) of the same molecule?
Its value is “returned to baseline”.

And the “intracellular calcium level, compound alone” value (rat brain slices; Cyclic T14 1 μM)?
Its value is “does not change the basal level”.

And the “calcium influx, T30 + NBP-14” value (α7 nicotinic receptor; T30 5 uM + NBP-14 5 nM (1st of 10 values))?
The value was 134.2497±6.85%.

What about the “calcium influx, T30 + NBP-14” value (α7 nicotinic receptor; T30 5 uM + NBP-14 7 nM (2nd of 10 values)) of the same molecule?
The value was 120.8612±8.65%.

What about the “calcium influx, T30 + NBP-14” value (α7 nicotinic receptor; T30 5 uM + NBP-14 9 nM (3rd of 10 values)) of the same molecule?
The value was 113.9162±8.82%.

What about the “calcium influx, T30 + NBP-14” value (α7 nicotinic receptor; T30 5 uM + NBP-14 10 nM (4th of 10 values)) of the same molecule?
Its value is 140.776±12.16%.

And the “calcium influx, T30 + NBP-14” value (α7 nicotinic receptor; T30 5 uM + NBP-14 20 nM (5th of 10 values))?
Its value is 115.83±7.67%.

What about the “calcium influx, T30 + NBP-14” value (α7 nicotinic receptor; T30 5 uM + NBP-14 50 nM (6th of 10 values)) of the same molecule?
The value was 110.3213±13.21%.

What about the “calcium influx, T30 + NBP-14” value (α7 nicotinic receptor; T30 5 uM + NBP-14 70 nM (7th of 10 values)) of the same molecule?
The value was 125.9596±0.1%.

And the “calcium influx, T30 + NBP-14” value (α7 nicotinic receptor; T30 5 uM + NBP-14, 8th of 10 values, only 9 concentrations printed (.. 70, 1000, 5000 nM), concentration unclear)?
The value was 99.85±0.32%.

And the “calcium influx, T30 + NBP-14” value (α7 nicotinic receptor; T30 5 uM + NBP-14, 9th of 10 values, concentration unclear)?
Its value is 115.1942±9.84%.

And the “calcium influx, T30 + NBP-14” value (α7 nicotinic receptor; T30 5 uM + NBP-14, 10th of 10 values, concentration unclear)?
The value was 79.99±14.04%.

What about the “concentration range protective against T30-induced calcium influx” value (α7 nicotinic receptor; T30 5 uM, FIG. 13) of the same molecule?
Its value is “low nanomolar range”.

What about the “concentration range protective against T30 induced cell death” value (PC12 cells [3]) of the same molecule?
Its value is “high nanomolar range”.

Which “increase of calcium influx” value (α7 nicotinic receptor; PC12 cells) does the source give for “KAEFHRWSSYMVHWKNQFDHYSKQDRCSDL [T30, reference compound]” here?
The value was “about 70%”.

What about the “calcium influx (acetylcholine control = 100%)” value (α7 nicotinic receptor; T30 5 uM alone, ACh 100 μM, N=3) of the same molecule?
Its value is 171.05%±6.21.
